Laboratory results published in PubChem BioAssay AID330 (DTP/NCI, 2004).
Where “and” joins values, the source holds several entries; their conditions need not be identical. Equal entries are not always repeated. Toxic doses and inconclusive results are not listed.

Tested on: P388 leukemia ip, CD2F1 mice, survival T/C
Test: NCI In Vivo Anticancer Drug Screen. Data for tumor model P388 Leukemia (intraperitoneal) in CD2F1 (CDF1) mice
Details: endpoint: median survival time, higher = longer survival
Procedure, shortened: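 Mice carrying the transplanted tumor received test compound or vehicle. Survival was recorded in each group, and the value is the treated-group measurement divided by that of the vehicle-treated control group.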

[1] = dose: 100.0 mg/kg/injection, schedule: Q01DX001 (ip), vehicle: saline with Tween-80
[2] = dose: 200.0 mg/kg/injection, schedule: Q01DX001 (ip), vehicle: saline with Tween-80
[3] = dose: 400.0 mg/kg/injection, schedule: Q01DX001 (ip), vehicle: saline with Tween-80
[4] = dose: 60.0 mg/kg/injection, schedule: Q01DX005 (ip), vehicle: Klucel (hydroxypropylcellulose) (HPC)
[5] = dose: 120.0 mg/kg/injection, schedule: Q01DX005 (ip), vehicle: Klucel (hydroxypropylcellulose) (HPC)
[6] = dose: 240.0 mg/kg/injection, schedule: Q01DX005 (ip), vehicle: Klucel (hydroxypropylcellulose) (HPC)
[7] = dose: 15.0 mg/kg/injection, schedule: Q01DX005 (ip), vehicle: Klucel (hydroxypropylcellulose) (HPC)
[8] = dose: 30.0 mg/kg/injection, schedule: Q01DX005 (ip), vehicle: Klucel (hydroxypropylcellulose) (HPC)
[9] = dose: 50.0 mg/kg/injection, schedule: Q01DX009 (ip), vehicle: saline with Tween-80
[10] = dose: 100.0 mg/kg/injection, schedule: Q01DX009 (ip), vehicle: saline with Tween-80
[11] = dose: 200.0 mg/kg/injection, schedule: Q01DX009 (ip), vehicle: saline with Tween-80

CNC(=O)NS(=O)(=O)c1cnccc1Cl
T/C [1]: 97 % of control
T/C [2]: 100 % of control
T/C [3]: 97 % of control

C=C1C(=O)OC2/C=C(\C)C(O)CC(O)C(C)(O)CC(OC(=O)/C(C)=C/C)C12 (stereo unspecified)
T/C (dose: 10.0 mg/kg/injection, schedule: Q01DX009 (ip), vehicle: saline with Tween-80): 102 % of control
T/C (dose: 20.0 mg/kg/injection, schedule: Q01DX009 (ip), vehicle: saline with Tween-80): 100 % of control and 119 % of control and 97 % of control
T/C (dose: 40.0 mg/kg/injection, schedule: Q01DX009 (ip), vehicle: saline with Tween-80): 101 % of control and 113 % of control and 123 % of control
T/C (dose: 80.0 mg/kg/injection, schedule: Q01DX009 (ip), vehicle: saline with Tween-80): 113 % of control and 115 % of control

C[CH2][Sn]([CH2]C)([N]=C=S)[N]=C=S.c1ccc2nc(-c3ccc4ccccc4n3)ccc2c1
T/C [4]: 95 % of control
T/C [5]: 96 % of control
T/C [6]: 98 % of control

CC[C@@]12C[C@H]3CN(CCc4c([nH]c5ccccc45)[C@@](C(=O)OC)(c4cc5c(cc4OC)N(C)[C@H]4[C@@](O)(C(=O)OC)[C@H](OC(C)=O)[C@]6(CC)C=CCN7CC[C@]54[C@@H]76)C3O1)C2 (stereo partly specified)
T/C (dose: 0.5 mg/kg/injection, schedule: Q01DX001 (ip), vehicle: distilled water + Tween-80): 103 % of control
T/C (dose: 0.5 mg/kg/injection, schedule: Q01DX001 (ip), vehicle: water): 98 % of control
T/C (dose: 1.0 mg/kg/injection, schedule: Q01DX001 (ip), vehicle: distilled water + Tween-80): 100 % of control and 101 % of control
T/C (dose: 1.0 mg/kg/injection, schedule: Q01DX001 (ip), vehicle: water): 96 % of control
T/C (dose: 1.0 mg/kg/injection, schedule: Q01DX009 (ip), vehicle: distilled water + alcohol): 176 % of control
T/C (dose: 2.0 mg/kg/injection, schedule: Q01DX001 (ip), vehicle: distilled water + Tween-80): 100 % of control
T/C (dose: 2.0 mg/kg/injection, schedule: Q01DX001 (ip), vehicle: water): 97 % of control
T/C (dose: 2.0 mg/kg/injection, schedule: Q01DX009 (ip), vehicle: distilled water + alcohol): 176 % of control
T/C (dose: 4.0 mg/kg/injection, schedule: Q01DX001 (ip), vehicle: distilled water + Tween-80): 100 % of control and 108 % of control
T/C (dose: 4.0 mg/kg/injection, schedule: Q01DX001 (ip), vehicle: water): 105 % of control
T/C (dose: 4.0 mg/kg/injection, schedule: Q01DX009 (ip), vehicle: distilled water + alcohol): 168 % of control
T/C (dose: 8.0 mg/kg/injection, schedule: Q01DX001 (ip), vehicle: distilled water + Tween-80): 100 % of control and 93 % of control
T/C (dose: 8.0 mg/kg/injection, schedule: Q01DX001 (ip), vehicle: water): 108 % of control
T/C (dose: 16.0 mg/kg/injection, schedule: Q01DX001 (ip), vehicle: distilled water + Tween-80): 96 % of control
T/C (dose: 32.0 mg/kg/injection, schedule: Q01DX001 (ip), vehicle: distilled water + Tween-80): 102 % of control

CN1CCC/C1=C\C(=O)c1ccco1
T/C [7]: 100 % of control
T/C [8]: 103 % of control
T/C [4]: 109 % of control and 89 % of control

CN1CNC(=O)c2n[nH]nc21
T/C (dose: 12.5 mg/kg/injection, schedule: Q04DX002 (ip), vehicle: Klucel (hydroxypropylcellulose) (HPC)): 99 % of control
T/C (dose: 25.0 mg/kg/injection, schedule: Q04DX002 (ip), vehicle: Klucel (hydroxypropylcellulose) (HPC)): 108 % of control
T/C (dose: 50.0 mg/kg/injection, schedule: Q04DX002 (ip), vehicle: Klucel (hydroxypropylcellulose) (HPC)): 100 % of control and 102 % of control

CC1(C)CC(Nc2ccccc2)=CC(=Nc2ccccc2)S1
T/C [4]: 110 % of control
T/C [5]: 92 % of control
T/C [6]: 89 % of control

CCOC(=O)c1c[n+](C2OC(COC(=O)c3ccccc3)C(OC(=O)c3ccccc3)C2OC(=O)c2ccccc2)ccc1N (stereo unspecified)
T/C (dose: 12.5 mg/kg/injection, schedule: Q01DX005 (ip), vehicle: saline with Tween-80): 98 % of control
T/C (dose: 25.0 mg/kg/injection, schedule: Q01DX005 (ip), vehicle: saline with Tween-80): 107 % of control
T/C (dose: 50.0 mg/kg/injection, schedule: Q01DX005 (ip), vehicle: saline with Tween-80): 105 % of control and 92 % of control

O=c1ccc2cc3ccoc3c(OCCCCCCBr)c2o1
T/C (dose: 100.0 mg/kg/injection, schedule: Q04DX002 (ip), vehicle: Klucel (hydroxypropylcellulose) (HPC)): 91 % of control
T/C (dose: 200.0 mg/kg/injection, schedule: Q04DX002 (ip), vehicle: Klucel (hydroxypropylcellulose) (HPC)): 99 % of control
T/C (dose: 400.0 mg/kg/injection, schedule: Q04DX002 (ip), vehicle: Klucel (hydroxypropylcellulose) (HPC)): 98 % of control

C=C(C)c1nn(-c2ccccc2)c2c1C(=O)CC(C)O2 (stereo unspecified)
T/C (dose: 60.0 mg/kg/injection, schedule: Q01DX005 (ip), vehicle: saline with Tween-80): 98 % of control
T/C (dose: 120.0 mg/kg/injection, schedule: Q01DX005 (ip), vehicle: saline with Tween-80): 100 % of control
T/C (dose: 240.0 mg/kg/injection, schedule: Q01DX005 (ip), vehicle: saline with Tween-80): 98 % of control

CC(=O)OCC1OC(Nc2[nH]c(=O)n(C)c(=O)c2N=O)C(OC(C)=O)C(OC(C)=O)C1OC(C)=O (stereo unspecified)
T/C (dose: 100.0 mg/kg/injection, schedule: Q04DX002 (ip), vehicle: saline with Tween-80): 104 % of control
T/C (dose: 200.0 mg/kg/injection, schedule: Q04DX002 (ip), vehicle: saline with Tween-80): 103 % of control
T/C (dose: 400.0 mg/kg/injection, schedule: Q04DX002 (ip), vehicle: saline with Tween-80): 102 % of control

Cc1ccc(S(=O)(=O)F)c(Cl)c1
T/C (dose: 100.0 mg/kg/injection, schedule: Q04DX003 (ip), vehicle: Klucel (hydroxypropylcellulose) (HPC)): 95 % of control
T/C (dose: 200.0 mg/kg/injection, schedule: Q04DX003 (ip), vehicle: Klucel (hydroxypropylcellulose) (HPC)): 119 % of control
T/C (dose: 400.0 mg/kg/injection, schedule: Q04DX003 (ip), vehicle: Klucel (hydroxypropylcellulose) (HPC)): 103 % of control

N#Cc1ccc[nH]c1=S
T/C [9]: 95 % of control
T/C [10]: 102 % of control
T/C [11]: 104 % of control

CCOC(=O)c1cc(=O)[nH]c2cc(N)ccc12
T/C [4]: 97 % of control
T/C [5]: 93 % of control
T/C [6]: 91 % of control

Cc1ccc(S(=O)(=O)OC2C(O)CC(=O)C(OC(=O)c3ccccc3)C2OC(=O)c2ccccc2)cc1 (stereo unspecified)
T/C (dose: 50.0 mg/kg/injection, schedule: Q01DX001 (ip), vehicle: saline with Tween-80): 90 % of control
T/C [1]: 89 % of control
T/C [3]: 100 % of control

O=C1OC(=O)C2C3C=CC(C12)C1C2C(=O)OC(=O)C2C31 (stereo unspecified)
T/C (dose: 100.0 mg/kg/injection, schedule: Q04DX003 (ip), vehicle: saline with Tween-80): 103 % of control
T/C (dose: 200.0 mg/kg/injection, schedule: Q04DX003 (ip), vehicle: saline with Tween-80): 99 % of control
T/C (dose: 400.0 mg/kg/injection, schedule: Q04DX003 (ip), vehicle: saline with Tween-80): 96 % of control
T/C (dose: 600.0 mg/kg/injection, schedule: Q04DX003 (ip), vehicle: saline with Tween-80): 96 % of control

CC(C)c1ccc(C(=O)O)cc1
T/C [9]: 103 % of control
T/C [10]: 103 % of control
T/C [11]: 115 % of control

Clc1ccc(C[Se][Se]Cc2ccc(Cl)cc2)cc1
T/C (dose: 6.25 mg/kg/injection, schedule: Q01DX009 (ip), vehicle: Klucel (hydroxypropylcellulose) (HPC)): 109 % of control
T/C (dose: 12.5 mg/kg/injection, schedule: Q01DX009 (ip), vehicle: Klucel (hydroxypropylcellulose) (HPC)): 108 % of control
T/C (dose: 25.0 mg/kg/injection, schedule: Q01DX009 (ip), vehicle: Klucel (hydroxypropylcellulose) (HPC)): 101 % of control

CCCN(CCC)C(=O)C(c1ccccc1)C1(O)CCCCC1 (stereo unspecified)
T/C (dose: 50.0 mg/kg/injection, schedule: Q01DX005 (ip), vehicle: Klucel (hydroxypropylcellulose) (HPC)): 100 % of control
T/C (dose: 100.0 mg/kg/injection, schedule: Q01DX005 (ip), vehicle: Klucel (hydroxypropylcellulose) (HPC)): 100 % of control
T/C (dose: 200.0 mg/kg/injection, schedule: Q01DX005 (ip), vehicle: Klucel (hydroxypropylcellulose) (HPC)): 97 % of control

Cc1ccnc2cc(N(C)C)ccc12
T/C (dose: 7.5 mg/kg/injection, schedule: Q01DX005 (ip), vehicle: Klucel (hydroxypropylcellulose) (HPC)): 101 % of control
T/C [7]: 98 % of control
T/C [8]: 99 % of control
T/C [4]: 92 % of control

CCC(c1ccc(OC)cc1)C(NCC(=O)N/N=C/c1ccc(O)c(OC)c1)c1ccc(OC)cc1 (stereo unspecified)
T/C [1]: 107 % of control
T/C [2]: 107 % of control
T/C [3]: 101 % of control

CCCCCCCCCCCCCCCC[n+]1cccc(C(=O)NCO)c1
T/C (dose: 6.25 mg/kg/injection, schedule: Q01DX009 (ip), vehicle: saline with Tween-80): 100 % of control
T/C (dose: 12.5 mg/kg/injection, schedule: Q01DX009 (ip), vehicle: saline with Tween-80): 104 % of control
T/C (dose: 25.0 mg/kg/injection, schedule: Q01DX009 (ip), vehicle: saline with Tween-80): 104 % of control
